Source: patent publication US11214803B2, “Modulators of YAP1 expression” (Ionis Pharmaceuticals, Inc., priority 2019, dated 2022)
Strand notation (5' to 3'): a small letter for the sugar, then the base; units joined by * are phosphorothioate-linked, units joined directly phosphodiester-linked; [ ] holds rarer units or linkages, { } end groups; capitals alone tell only the bases. k = constrained ethyl (cEt); [5mC] = 5-methylcytosine; d = 2'-deoxy (DNA)

Test system: Yap1 mRNA
Assay: Antisense inhibition of human Yap1 in A-431 cells by cEt gapmers, single dose (Example 2, RTS4814)
Assay type: cell-based
Method in brief: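 Free uptake, 2,000 nM, ~48 h, A-431 at 5,000 cells/well. Readout: RT-qPCR (RTS4814), RIBOGREEN-normalized, % UTC. 16-mer 3-10-3 cEt gapmers, full PS backbone, all C as 5-methylcytosine.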

[1] = Yap1 mRNA as percent of untreated control, A-431 cells, 3-10-3 cEt gapmers targeting SEQ ID NO.: 1, and 2, Table 30
[2] = Table 32, Yap1 mRNA, percent of untreated control, 3-10-3 cEt gapmers targeting SEQ ID NO.: 1, and 2
[3] = Table 24, Yap1 mRNA as percent of untreated control, 3-10-3 cEt gapmers targeting SEQ ID NO.: 1, and 2
[4] = Table 6, A-431 cells, 5,000 cells per well, free uptake, 2,000 nM modified oligonucleotide, approx. 48 hours, RTS4814, normalized to RIBOGREEN, Yap1 mRNA relative to untreated control cells
[5] = Yap1 mRNA as percent of untreated control, A-431 cells, 3-10-3 cEt gapmers targeting SEQ ID NO.: 1, and 2, Table 31
[6] = Table 19, A-431 cells, 5,000 cells per well, free uptake, 2,000 nM modified oligonucleotide, approx. 48 hours, RTS4814, normalized to RIBOGREEN, Yap1 mRNA as percent of untreated control
[7] = Table 5, A-431 cells, 5,000 cells per well, free uptake, 2,000 nM modified oligonucleotide, approx. 48 hours, RTS4814, normalized to RIBOGREEN, Yap1 mRNA relative to untreated control cells
[8] = Table 18, A-431 cells, 5,000 cells per well, free uptake, 2,000 nM modified oligonucleotide, approx. 48 hours, RTS4814, normalized to RIBOGREEN, Yap1 mRNA as percent of untreated control
[9] = Table 23, Yap1 mRNA as percent of untreated control, 3-10-3 cEt gapmers, single dose
[10] = Table 33, Yap1 mRNA, percent of untreated control, 3-10-3 cEt gapmers targeting SEQ ID NO.: 1, and 2
[11] = Table 25, Yap1 mRNA as percent of untreated control, 3-10-3 cEt gapmers targeting SEQ ID NO.: 1, and 2

## 1074832 (kG*k[5mC]*kG*dA*dG*dG*dA*dT*dA*dA*dA*dA*dT*k[5mC]*k[5mC]*kA; antisense) [compound 1074832]
[1]
  YAP1 (% UTC): 17 % UTC

## 1075378 (antisense kA*kA*kA*dA*d[5mC]*dT*dA*dA*dT*d[5mC]*dA*dT*d[5mC]*kG*kA*kT) [compound 1075378]
[2]
  YAP1 (% UTC): 83 % UTC

## 1075570 (kG*kA*kT*dA*d[5mC]*dT*dA*dA*dG*d[5mC]*dA*d[5mC]*dA*kG*kA*kG; antisense) [compound 1075570]
[2]
  YAP1 (% UTC): 16 % UTC

## 1076232 (kG*kT*kA*dA*dT*dA*d[5mC]*dA*d[5mC]*d[5mC]*dA*dT*dT*kT*kG*kG; antisense) [Compound 1076232]
Table 22, Yap1 mRNA as percent of untreated control, 3-10-3 cEt gapmers, single dose
  YAP1 (% UTC): 15 % UTC

## 1075050 (antisense kA*k[5mC]*k[5mC]*d[5mC]*dA*dA*d[5mC]*dG*dG*dT*d[5mC]*dA*dT*kG*kT*kT) [Compound 1075050]
[3]
  YAP1 (% UTC): 94 % UTC

## 716489 (kA*kG*kT*dT*dA*dA*dT*dT*d[5mC]*dA*dT*dG*d[5mC]*kT*k[5mC]*kG; antisense) [Compound 716489]
[4]
  YAP1 (% UTC): 23 % UTC

## 1075025 (antisense kA*k[5mC]*kT*dT*dA*dA*dG*dA*dA*d[5mC]*dT*d[5mC]*dA*k[5mC]*kA*k[5mC]) [compound 1075025]
[5]
  YAP1 (% UTC): 58 % UTC

## 716522 (antisense kG*kT*kG*dA*d[5mC]*dT*dG*dA*dA*dA*d[5mC]*dT*d[5mC]*kT*kA*kG) [Compound 716522]
[4]
  YAP1 (% UTC): 47 % UTC

## 1075754 (k[5mC]*kT*kT*dA*dA*dA*dT*dG*dG*d[5mC]*dA*d[5mC]*dA*kG*kT*kT; antisense) [Compound 1075754]
[3]
  YAP1 (% UTC): 20 % UTC

## 1075909 (kA*kA*kA*dT*dA*dA*dG*dG*dA*dG*dT*dA*dG*kG*kT*kG; antisense) [Compound 1075909]
[6]
  YAP1 (% UTC): 93 % UTC

## 1075537 (k[5mC]*kT*kT*dT*dA*dA*dT*dT*dA*d[5mC]*d[5mC]*d[5mC]*dA*kA*kG*kG; antisense) [compound 1075537]
[5]
  YAP1 (% UTC): 82 % UTC

## 716380 (kT*kT*kA*dA*dG*dA*dA*dG*dT*dA*dT*d[5mC]*dT*k[5mC]*kT*kG; antisense) [Compound 716380]
[7]
  YAP1 (% UTC): 54 % UTC

## 716372 (kA*kT*kG*dA*dG*d[5mC]*dT*d[5mC]*dG*dA*dA*d[5mC]*dA*kT*kG*k[5mC]; antisense) [Compound 716372]
[4]
  YAP1 (% UTC): 61 % UTC

## 1074695 (antisense k[5mC]*k[5mC]*k[5mC]*d[5mC]*d[5mC]*dT*dA*dA*dA*dT*d[5mC]*dT*dT*k[5mC]*kA*k[5mC]) [Compound 1074695]
Table 21, Yap1 mRNA, percent of untreated control, 3-10-3 cEt gapmers targeting SEQ ID NO.: 1 and 2
  YAP1 (% UTC): 49 % UTC

## 716395 (kG*k[5mC]*k[5mC]*dG*d[5mC]*dA*dG*d[5mC]*d[5mC]*dT*d[5mC]*dT*d[5mC]*k[5mC]*kT*kT; antisense) [Compound 716395]
[7]
  YAP1 (% UTC): 92 % UTC

## 1076516 (antisense k[5mC]*kA*kT*dA*dA*dA*d[5mC]*dA*dT*dG*dA*dG*dT*kG*kG*kT) [Compound 1076516]
[8]
  YAP1 (% UTC): 8 % UTC

## 716378 (kG*k[5mC]*kA*dG*dA*dG*dG*dT*dA*d[5mC]*dA*dT*d[5mC]*kA*kT*k[5mC]; antisense) [Compound 716378]
[4]
  YAP1 (% UTC): 44 % UTC

## 1076562 (kT*kA*kT*dT*dA*d[5mC]*dA*dG*dA*dG*dG*dG*dT*kA*kG*k[5mC]; antisense) [compound 1076562]
[2]
  YAP1 (% UTC): 17 % UTC

## 1075684 (kT*k[5mC]*kT*dG*dA*dA*dA*dA*dA*dG*dT*dT*dA*kT*kG*k[5mC]; antisense) [Compound 1075684]
[8]
  YAP1 (% UTC): 78 % UTC

## 1074341 (antisense kA*kT*k[5mC]*d[5mC]*d[5mC]*dG*dG*dG*dA*dG*dA*dA*dG*kA*k[5mC]*kA) [Compound 1074341]
[6]
  YAP1 (% UTC): 106 % UTC

## 1074121 (antisense kT*kG*k[5mC]*dG*dA*dG*dG*d[5mC]*dA*d[5mC]*dT*d[5mC]*dG*kG*kA*k[5mC]) [Compound 1074121]
[9]
  YAP1 (% UTC): 87 % UTC

## 1076243 (kA*kT*kA*dT*dT*d[5mC]*dG*dA*dT*dG*dT*dA*dA*k[5mC]*kT*kT; antisense) [compound 1076243]
[10]
  YAP1 (% UTC): 41 % UTC

## 1075123 (k[5mC]*kT*kT*dT*dA*dG*dG*dA*dA*dA*dG*dG*dG*kT*kA*kT; antisense) [compound 1075123]
[10]
  YAP1 (% UTC): 21 % UTC

## 1075819 (kG*kT*kA*dT*dA*dT*d[5mC]*d[5mC]*dG*dT*dT*d[5mC]*dT*k[5mC]*kA*kT; antisense) [Compound 1075819]
[11]
  YAP1 (% UTC): 2 % UTC

## 1075242 (antisense k[5mC]*kA*kG*dG*dG*dA*dT*dA*dA*dT*dT*dA*d[5mC]*kT*kA*kA) [Compound 1075242]
[3]
  YAP1 (% UTC): 7 % UTC

## 1074570 (antisense kA*kT*kG*dA*dA*d[5mC]*d[5mC]*dT*dA*d[5mC]*dT*d[5mC]*dA*k[5mC]*kT*kG) [Compound 1074570]
[3]
  YAP1 (% UTC): 12 % UTC

## 1074411 (antisense kT*kG*kT*dG*dA*dA*dA*dG*dA*dG*dG*dT*d[5mC]*kA*kG*k[5mC]) [Compound 1074411]
[11]
  YAP1 (% UTC): 3 % UTC

## 1074857 (antisense kA*k[5mC]*kA*dT*dT*dG*dG*dT*dA*d[5mC]*dT*dA*dT*kA*kT*kA) [Compound 1074857]
[9]
  YAP1 (% UTC): 25 % UTC

## 1076489 (antisense k[5mC]*kA*kA*dA*dA*dT*dA*dG*dG*dT*dG*dA*dG*kT*k[5mC]*kA) [Compound 1076489]
[9]
  YAP1 (% UTC): 2 % UTC

## 1076069 (kT*k[5mC]*kT*dA*dA*dA*dA*dT*dG*dA*d[5mC]*d[5mC]*dT*kT*kA*kG; antisense) [Compound 1076069]
[6]
  YAP1 (% UTC): 118 % UTC

## 1076133 (k[5mC]*kA*kT*dA*d[5mC]*dT*dA*dA*dT*dT*dT*dG*dG*kT*kA*kA; antisense) [Compound 1076133]
[6]
  YAP1 (% UTC): 60 % UTC

## 1076113 (kT*kG*kA*d[5mC]*dA*dA*dT*dA*dG*d[5mC]*d[5mC]*dA*dA*kT*kG*k[5mC]; antisense) [compound 1076113]
[5]
  YAP1 (% UTC): 16 % UTC

## 1075921 (antisense kG*kA*kA*dA*dG*dA*dA*dA*dG*d[5mC]*dT*dG*d[5mC]*kG*k[5mC]*kA) [compound 1075921]
[5]
  YAP1 (% UTC): 93 % UTC

## 716552 (kT*kT*kT*d[5mC]*dT*d[5mC]*dA*dG*dA*dT*dG*dT*dA*k[5mC]*k[5mC]*kA; antisense) [Compound 716552]
[4]
  YAP1 (% UTC): 53 % UTC

## 1075410 (antisense kG*kA*kT*dT*dA*dA*d[5mC]*dA*dG*d[5mC]*d[5mC]*d[5mC]*dT*kT*kT*kA) [compound 1075410]
[2]
  YAP1 (% UTC): 36 % UTC

## 1074512 (kG*kG*kA*dT*dA*d[5mC]*dA*dT*dT*d[5mC]*d[5mC]*dA*d[5mC]*kT*kA*k[5mC]; antisense) [compound 1074512]
[1]
  YAP1 (% UTC): 64 % UTC

## 1076548 (antisense k[5mC]*kA*k[5mC]*d[5mC]*dA*dA*d[5mC]*d[5mC]*dT*dG*dT*dT*dA*kA*kG*kG) [Compound 1076548]
[8]
  YAP1 (% UTC): 106 % UTC

## 1074291 (antisense k[5mC]*kA*k[5mC]*dT*d[5mC]*dT*dG*dA*d[5mC]*dT*dG*dA*dT*kT*k[5mC]*kT) [compound 1074291]
[10]
  YAP1 (% UTC): 11 % UTC

## 716410 (kG*kT*kA*dT*d[5mC]*dA*d[5mC]*d[5mC]*dT*dG*dT*dA*dT*k[5mC]*k[5mC]*kA; antisense) [Compound 716410]
[7]
  YAP1 (% UTC): 52 % UTC

## 1074185 (antisense kG*kG*k[5mC]*d[5mC]*dG*dG*dT*dT*dG*dA*dG*dG*d[5mC]*kG*kG*k[5mC]) [Compound 1074185]
[9]
  YAP1 (% UTC): 91 % UTC
